Measured values taken from publication PMC3914206.

How the values were obtained:
Type in all cases: binding
panel of 442 kinases [1] = target: T1, panel of 442 kinases (Homo sapiens, UniProt Q07912); settings: kinase TNK2; compound concentration 10 µM
T1 construct: purchased KINOMEscan
Source text: (§1) We assessed the selectivity of members of this scaffold using the KINOMEscan methodology across a near comprehensive panel of 442 kinases [[18,27]].

panel of 442 kinases [2] = target: T2, panel of 442 kinases (Homo sapiens, UniProt Q16512); settings: Compound Concentration 10 µM
T2 construct: purchased KINOMEscan
Source text: as §1

panel of 442 kinases [3] = target: T3, panel of 442 kinases (Homo sapiens, UniProt Q9P0L2); settings: Compound Concentration 10 µM
T3 construct: purchased KINOMEscan
Source text: as §1

T2 sequence (Q16512 whole entry): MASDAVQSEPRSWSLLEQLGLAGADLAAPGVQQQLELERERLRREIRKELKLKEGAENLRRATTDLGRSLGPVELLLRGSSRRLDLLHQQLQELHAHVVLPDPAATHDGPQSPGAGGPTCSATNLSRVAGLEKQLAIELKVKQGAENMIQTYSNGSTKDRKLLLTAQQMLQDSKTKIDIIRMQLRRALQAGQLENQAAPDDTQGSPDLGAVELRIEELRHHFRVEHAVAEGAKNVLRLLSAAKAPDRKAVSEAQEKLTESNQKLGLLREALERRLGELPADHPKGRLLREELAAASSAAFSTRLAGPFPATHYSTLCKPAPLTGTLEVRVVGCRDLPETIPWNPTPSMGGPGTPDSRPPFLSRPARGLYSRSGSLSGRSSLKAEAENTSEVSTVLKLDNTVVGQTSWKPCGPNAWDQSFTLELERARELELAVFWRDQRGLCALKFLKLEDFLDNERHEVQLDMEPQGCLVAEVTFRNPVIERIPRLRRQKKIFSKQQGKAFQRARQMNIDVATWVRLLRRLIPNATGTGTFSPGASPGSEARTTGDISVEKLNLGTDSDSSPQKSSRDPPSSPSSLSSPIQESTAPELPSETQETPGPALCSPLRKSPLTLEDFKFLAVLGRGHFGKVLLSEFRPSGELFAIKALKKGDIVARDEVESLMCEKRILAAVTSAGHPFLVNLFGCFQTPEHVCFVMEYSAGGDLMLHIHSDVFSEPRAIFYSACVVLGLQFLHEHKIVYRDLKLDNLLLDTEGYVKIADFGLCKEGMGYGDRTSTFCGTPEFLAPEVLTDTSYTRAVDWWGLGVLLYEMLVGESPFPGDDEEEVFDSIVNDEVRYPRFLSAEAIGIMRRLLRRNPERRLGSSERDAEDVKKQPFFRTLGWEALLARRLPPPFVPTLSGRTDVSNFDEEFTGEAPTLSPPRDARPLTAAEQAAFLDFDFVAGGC
T3 sequence (Q9P0L2 whole entry): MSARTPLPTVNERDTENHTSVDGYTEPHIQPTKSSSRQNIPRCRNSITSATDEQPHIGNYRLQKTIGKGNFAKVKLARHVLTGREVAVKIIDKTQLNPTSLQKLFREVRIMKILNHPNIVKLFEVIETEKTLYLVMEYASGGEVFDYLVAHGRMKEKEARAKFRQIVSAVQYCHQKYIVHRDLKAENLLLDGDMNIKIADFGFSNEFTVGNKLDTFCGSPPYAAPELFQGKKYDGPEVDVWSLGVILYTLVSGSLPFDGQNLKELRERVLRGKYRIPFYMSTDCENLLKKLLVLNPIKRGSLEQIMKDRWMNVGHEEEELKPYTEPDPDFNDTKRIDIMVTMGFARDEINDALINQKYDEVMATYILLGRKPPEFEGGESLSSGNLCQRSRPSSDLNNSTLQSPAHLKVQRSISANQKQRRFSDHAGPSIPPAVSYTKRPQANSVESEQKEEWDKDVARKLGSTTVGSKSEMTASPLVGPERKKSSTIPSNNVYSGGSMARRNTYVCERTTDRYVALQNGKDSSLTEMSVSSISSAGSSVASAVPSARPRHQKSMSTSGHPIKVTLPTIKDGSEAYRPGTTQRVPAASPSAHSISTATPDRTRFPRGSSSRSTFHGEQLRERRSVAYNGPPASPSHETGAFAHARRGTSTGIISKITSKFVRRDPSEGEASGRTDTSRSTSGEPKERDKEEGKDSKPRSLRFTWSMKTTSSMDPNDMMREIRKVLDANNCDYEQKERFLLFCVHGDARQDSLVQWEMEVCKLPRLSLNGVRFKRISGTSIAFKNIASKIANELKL
T1 sequence (Q07912 whole entry): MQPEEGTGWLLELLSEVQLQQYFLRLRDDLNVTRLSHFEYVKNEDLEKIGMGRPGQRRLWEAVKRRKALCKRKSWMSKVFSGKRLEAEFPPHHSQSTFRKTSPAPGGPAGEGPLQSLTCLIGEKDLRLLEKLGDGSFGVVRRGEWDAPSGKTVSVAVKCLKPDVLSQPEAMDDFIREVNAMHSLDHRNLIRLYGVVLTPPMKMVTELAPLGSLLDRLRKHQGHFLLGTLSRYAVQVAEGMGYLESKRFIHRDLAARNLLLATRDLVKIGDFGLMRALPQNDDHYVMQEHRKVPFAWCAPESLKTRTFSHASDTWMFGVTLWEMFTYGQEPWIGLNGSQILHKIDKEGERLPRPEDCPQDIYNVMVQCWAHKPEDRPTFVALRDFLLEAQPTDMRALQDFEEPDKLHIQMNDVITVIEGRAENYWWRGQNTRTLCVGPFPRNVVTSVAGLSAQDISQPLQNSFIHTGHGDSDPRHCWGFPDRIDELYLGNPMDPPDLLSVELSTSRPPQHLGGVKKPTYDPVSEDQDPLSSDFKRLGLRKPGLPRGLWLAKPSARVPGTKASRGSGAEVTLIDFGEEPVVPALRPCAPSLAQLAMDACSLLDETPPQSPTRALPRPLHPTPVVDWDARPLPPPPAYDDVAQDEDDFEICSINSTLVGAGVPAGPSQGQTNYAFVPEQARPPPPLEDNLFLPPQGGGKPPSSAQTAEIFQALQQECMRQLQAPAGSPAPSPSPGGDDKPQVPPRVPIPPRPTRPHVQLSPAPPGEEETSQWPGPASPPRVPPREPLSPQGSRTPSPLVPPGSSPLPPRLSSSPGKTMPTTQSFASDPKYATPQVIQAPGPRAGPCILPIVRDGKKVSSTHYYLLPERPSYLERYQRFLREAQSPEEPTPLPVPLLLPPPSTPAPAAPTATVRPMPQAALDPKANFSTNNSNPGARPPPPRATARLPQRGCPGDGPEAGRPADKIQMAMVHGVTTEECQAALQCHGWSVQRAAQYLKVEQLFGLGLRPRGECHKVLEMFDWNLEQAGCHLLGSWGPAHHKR

SMILES	% Ctrl, TNK2 (panel of 442 kinases [1])	KINOMEscan: PKN1 (panel of 442 kinases [2])	KINOMEscan: MARK1 (panel of 442 kinases [3])
CCOc1cc(C(=O)N2CCC(N3CCN(C)CC3)CC2)ccc1Nc1ncc2c(n1)N(C1CCCC1)c1ccccc1C(=O)N2C [Compound 26]	80 % Ctrl	100	100
COc1cc(C(=O)N2CCC(N3CCN(C)CC3)CC2)ccc1Nc1ncc2c(n1)N1CCc3cccc(c31)C(=O)N2C [Compound 24]	43 % Ctrl	–	83
COc1cc(C(=O)N2CCC(N3CCN(C)CC3)CC2)ccc1Nc1ncc2c(n1)N(C)c1ccccc1C(=O)N2C [15 (LRRK2-IN-1)]	18 % Ctrl	100	87
COc1cc(C(=O)N2CCC(N3CCN(C)CC3)CC2)ccc1Nc1ncc2c(n1)N(C1CCCC1)c1ccccc1C(=O)N2C [Compound 25, 11-cyclopentyl-2-((2-methoxy-4-(4-(4-methylpiperazin-1-yl)piperidine-1-carbonyl)phenyl)amino)-5-methyl-5H-benzo[e]pyrimido[5,4-b][1,4]diazepin-6(11H)-one]	35 % Ctrl	100	99
